The results in this text go back to paper PMC6149853, “Species-Specific Inactivation of Triosephosphate Isomerase from Trypanosoma brucei: Kinetic and Molecular Dynamics Studies” (Molecules : A Journal of Synthetic Chemistry and Natural …, 2017).

The target of assay [1] is T1, TbTIM (triosephosphate isomerase from Trypanosoma brucei) (Trypanosoma brucei, UniProt P04789).
T1 construct: homodimer; 250 residues per monomer
Nature of the assay: residual activity after […] h preincubation; alpha-GPDH coupled assay, NADH at […] nm. In kind it is biochemical. As to conditions: read-out: I50.

The target in assay [2] is T2, HsTIM (human triosephosphate isomerase) (Homo sapiens, UniProt P60174).
T2 construct: gene TPI1
The assay is described as above. The assay is classed as biochemical. As to conditions: 5 µg/mL enzyme preincubated with compound 2 h at 36 °C, 10% DMSO, 10 mM EDTA, pH 7.4; assay 1 mM GAP, 25 °C.

T1 sequence (P04789 whole entry): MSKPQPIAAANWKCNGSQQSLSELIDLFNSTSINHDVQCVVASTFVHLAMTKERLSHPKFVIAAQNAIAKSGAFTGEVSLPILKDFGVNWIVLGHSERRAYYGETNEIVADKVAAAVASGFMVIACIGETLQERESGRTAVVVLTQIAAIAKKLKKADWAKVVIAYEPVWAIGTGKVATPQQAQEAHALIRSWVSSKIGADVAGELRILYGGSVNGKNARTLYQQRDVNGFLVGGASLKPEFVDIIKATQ
T2 sequence (P60174 2-249): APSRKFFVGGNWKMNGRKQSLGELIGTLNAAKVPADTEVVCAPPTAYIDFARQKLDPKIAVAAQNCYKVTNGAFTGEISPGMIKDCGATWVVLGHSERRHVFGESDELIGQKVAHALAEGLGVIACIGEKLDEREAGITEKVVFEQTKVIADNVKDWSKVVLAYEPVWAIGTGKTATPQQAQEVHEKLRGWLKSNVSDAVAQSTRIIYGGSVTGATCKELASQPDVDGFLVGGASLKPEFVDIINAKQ

As to `COC(=O)Nc1nc2cc(Oc3cccc4ccccc34)ccc2[nH]1` [compound 1, Methyl(5-(naphthalen-1-yloxy)-1H-benzimidazol-2-yl)carbamate], in assay [1], the IC50 was found to be 84 µM. The “% inactivation at 100 μM” value in assay [2] is 12%.

As to `COC(=O)Nc1nc2cc(Oc3ccc(Cl)c4ccccc34)ccc2[nH]1` [compound 2, Methyl(5-((4-chloronaphthalen-1-yl)oxy)-1H-benzimidazol-2-yl)carbamate], the IC50 in assay [1] is 82 µM. Also, the “% inactivation at 100 μM” value in assay [2] was 23%.

Take `CSc1nc2ccc(C(=O)N/N=C/c3ccc([N+](=O)[O-])o3)cc2[nH]1` [compound 3, (E)-2-(Methylthio)-N′-((5-nitrofuran-2-yl)methylene)-1H-benzimidazole-5-carbohydrazide]: in assay [1], the IC50 amounted to 73 µM.
